Results from patent US5171851A, “Imidazole substituted benzoxazine or benzothiazine derivatives” (Dong-A Pharm. Co., Ltd., priority 1990, dated 1992).
Like-named read-outs stand apart in the source and are kept apart here.

Experiments:
[1] = system: blood perfused papillary muscle preparation; assay: contractile power on blood perfused papillary muscle preparation; design: species or system dog; conditions: Canis lupus familiaris, read-out: change of contractivity (%); for activation at 0.001 mg: dose 1.0 ug; for activation at 0.01 mg: dose 10.0 ug
Procedure: Determination of contractile power on blood perfused papillary muscle preparation:
Dogs of either sex weighing 7-12 kg were anesthetized with sodium pentobarbital (30 mg/kg, i.v.). Heparin of 1000 unit/kg was administered to each animal intravenously. The animals were exsanguinated and heart was removed. The preparation was perfused through the cannulated anterior septal artery (ASA) with arterial blood from a donor dog at constant pressure of about […]. Donor dogs were anesthetized with sodium pentobarbital (30 mg/kg, i.v.). Heparin of 1000 units/kg was administered intravenously. The papillary muscle was stimulated with rectangular pulses of 5- ms duration and about 1.5 times the threshold voltage at a rate of 120 stimuli/min through bipolar electrodes. Resting tension was made to 2 g. The developed tension of papillary muscle was determined by Isometric tresducer. Detailed method was reporated by Matsumoto in Am J. Physiol. 218, 1459-1463 (1970). Test compound at the doses of 10-30 ul was injected in flowing blood in the gum tube connected to catheter. The inotropic effect of the test compounds was shown by change percent of developed tension compared with that prior to the administration of the test compounds.

[2] = system: ICR mouse; assay: acute toxicity test in ICR mouse; assay type: in vivo; conditions: intravenous, 30 mg/kg, five mice
Procedure: Acute toxicity test of 6-(4-methylimidazol-1-yl)-(4H)-3,1-benzothiazin-2-one was conducted in ICR mouse. The test compound was dissolved in a mixed solvent of saline and DMF (2:1) and was administered intravenously to five mice at a dose of 30 mg/kg body weight. […] Accordingly, LD50 of the compound is 30 mg/kg or more.

[3] = system: anesthetized cats; assay: cardiotonic effect on anesthetized cats; assay type: in vivo, cat; conditions: Felis catus; for change in vivo at 0.01 mg/kg: 0.01 mg/Kg iv; for change in vivo at 0.03 mg/kg: 0.03 mg/Kg iv; for change in vivo at 0.1 mg/kg: 0.1 mg/Kg iv
Procedure: Determination of cardiotonic effect on anesthetized cats: Male cats weighing about 3 kg were anesthetized with sodium pentobarbital (30 mg/kg, i.p.). The same anesthetic was infused intravenously at the does of 4 mg/kg/hr in order to maintain the anesthetic state and mechanically ventilated through a cuffed endotracheal tube, chest was opened by a midline incision and a catheter for measuring left ventricular pressure was inserted through apex into left ventricle and the left ventricular pressure was measured. LVdP/dt was determined by use of diffentiator from the left ventricular pressure. Systemic blood pressure was measured by the left femoral artery by a pressure transducer and heart rate was measured by a cardiotachometer triggered by blood pressure pulses. Test compound was injected into the femoral vein by use of cannule. After completion of the surgical procedures, the cats were allowed to recover about 30 minutes before drug administration. These compounds were dissolved in 0.9% physiological saline and diluted with saline. Solvent such as DMSO or DMF was also used, if necessary. Test compound of 0.1 ml/kg was used. Detailed method was reporated in J. Med. Chem. 30. 1279-87(1987).

[4] = system: blood-perfused sino-atrial preparation; assay: sinus rate on blood-perfused sino-atrial preparation; design: species or system dog; conditions: for activation at 0.003 mg: dose 3.0 ug
Procedure: Determination of sinus rate on blood-perfused sino-atrial preparation: Mongrel gods of either sex weighing 7-12 kg were anesthetized with sodium pentoba rbital (30 mg/kg i.v.). Heparin ob 1000 unit/kg was administered to each animal intravenously and the animals were exsanguinated. Heart was removed and put in Krebs-Henseleit solution. Catheter was inserted into blood vessel between right coronary artery and SA nodes. Right atrium and catheter were together removed. Blood supplied from carotid artery of donor dog of either sex weighing 15-25 kg, was supplied to blood vessel cather from right coronary artery and SA node under constant blood pressure of 100 mmHG by use of Peristaltic pump. The resting tension of right atrial muscle was made to 2g. The sinus rate triggered by spontaneous contraction of atrial muscle was determined on Narco physiograph Narcotrace 4). Detailed method was reported by S. Chiba, et al. in Japanese Pharmacology 25, 433-439(1975). Doses of test compounds were injected into flowing blood in gum tube connected to the near part of the catheter inserted into right coronary artery. The effects on sinus rate were shown as percent compared with the sinus ratio prior to the injection of the test compounds.

[5] = system: BALB/C mice; assay: acute toxicity test in BALB/C mice; assay type: in vivo, mouse; conditions: oral, 200 mg/kg, five mice
Procedure: Acute toxicity test in mice:
Acute toxicity test of 6-(4-methylimidazol-1-yl)-(4H)-3,1-benzothiazine-2-thione was conducted in BALB/C mice. The test compound was suspended in 5% arabic gum solution and administered orally to five mice at a dose of 200 mg/kg body weight by gastric tubing. […] Accordingly, LD50 of the compound is 200 mg/kg or more.

[6] = system: Spraque-Dawley rats; assay: acute toxicity test in Spraque-Dawley rats; conditions: rat, in vivo, po, 300 mg/kg
Procedure: Acute toxicity test of 6-(4-methylimidazol-1-yl)-(4H)-3,1-benzoxazin-2-one was conducted in Spraque-Dawley rats. The test compound was suspended in 5% arabic gum and was administered orally to six rats at a dose of 300 mg/kg body weight. […] Accordingly, LD 50 of the compound is 300 mg/kg or more.

[7] = Canis lupus familiaris, read-out: change of sinus rate (%)

SMILES	activation at 0.001 mg [1]	activation at 0.01 mg [1]	change in vivo at 0.01 mg/kg ([3]; read-out: HR (%))	change in vivo at 0.01 mg/kg ([3]; read-out: LV dp/dt (%))	change in vivo at 0.01 mg/kg ([3]; read-out: LVP (%))	change in vivo at 0.01 mg/kg ([3]; read-out: SBP (%))	change in vivo at 0.01 mg/kg ([3]; read-out: dBP)	change in vivo at 0.01 mg/kg ([3]; read-out: mBP (%))	change in vivo at 0.03 mg/kg ([3]; read-out: HR (%))	change in vivo at 0.03 mg/kg ([3]; read-out: LV dp/dt (%))	change in vivo at 0.03 mg/kg ([3]; read-out: LVP (%))	change in vivo at 0.03 mg/kg ([3]; read-out: SBP (%))	change in vivo at 0.03 mg/kg ([3]; read-out: dBP)	change in vivo at 0.03 mg/kg ([3]; read-out: mBP (%))	change in vivo at 0.1 mg/kg ([3]; read-out: HR (%))	change in vivo at 0.1 mg/kg ([3]; read-out: LV dp/dt (%))	change in vivo at 0.1 mg/kg ([3]; read-out: LVP (%))	change in vivo at 0.1 mg/kg ([3]; read-out: SBP (%))	change in vivo at 0.1 mg/kg ([3]; read-out: dBP)	change in vivo at 0.1 mg/kg ([3]; read-out: mBP (%))	also measured
Cc1cn(-c2ccc3c(c2)CSC(=O)N3)cn1 [6-(4-methylimidazol-1-yl)-(4H)-3,1-benzothiazin-2-one]	0%	20.5%	0%	14.8%	0%	-4%	-8.5%	-9.1%	0.6%	33.3%	0%	-10%	-14.3%	-12.5%	4.5%	40.7%	8.2%	-14%	-20%	-17.5%	activation at 0.03 mg ([1]; dose 30.0 ug): 30.7%; dead animals [2]: no dead animal was found; activation at 0.003 mg [4, 7]: 2.3%; activation at 0.03 mg ([4]; Canis lupus familiaris, dose 30.0 ug, read-out: change of sinus rate (%)): 5.6%
Cc1cn(-c2ccc3c(c2)CSC(=S)N3)cn1 [6-(4-methylimidazol-1-yl)-(4H)-3,1-benzothiazine-2-thione]	–	–	0%	3.7%	0%	4%	4%	4%	2.1%	18.5%	0%	0%	-4%	-3%	3.6%	40.7%	1.2%	-4.7%	-14%	-10%	dead animals [5]: no dead animal was found
Cc1cn(-c2ccc3c(c2)COC(=O)N3)cn1 [6-(4-methylimidazol-1-yl)(4H)-3,1-benzoxazin-2-one]	2.94%	30.4%	1.25%	29.6%	7.69%	-4.55%	-7.14%	-6%	1.88%	85.2%	23.1%	-9.12%	-10.7%	-10.2%	6.25%	113%	30.8%	-15.9%	-14.3%	-15%	activation at 0.003 mg ([1]; dose 3.0 ug): 13%; activation at 0.001 mg ([4]; Canis lupus familiaris, dose 1.0 ug, read-out: change of sinus rate (%)): 0%; activation at 0.003 mg [4, 7]: 2.52%; activation at 0.01 mg ([4]; Canis lupus familiaris, dose 10.0 ug, read-out: change of sinus rate (%)): 5.04%; change of sinus rate (%) ([4]; at the ED 30 dose): +5.17%; dead animals [6]: no dead animal was found
